In patent US20240166652A1, “MODULATORS OF THE INTEGRATED STRESS PATHWAY” (Calico Life Sciences LLC, priority 2017, published 2024) one finds EC50 data, which are given here for twelve compounds.

For this test, the system named is ATF4 luciferase reporter in HEK293T cells. Nature of the test: ATF4-Luc assay (ATF4 luciferase reporter, tunicamycin-treated HEK293T cells). It is filed as cell-based, human. As to conditions: Homo sapiens, HEK-293T; HEK293T cells carrying the ATF4 luciferase reporter, 1 μg/mL tunicamycin, 7 hours. A general note: In a reporter assay the amount or activity of a reporter protein is the signal.
As to `O=C(COc1ccc(Cl)c(F)c1)NC12CC(NS(=O)(=O)Cc3ccc(C(F)(F)F)cc3)(C1)C2` [Compound 426, 2-(4-chloro-3-fluorophenoxy)-N-[3-({[4-(trifluoromethyl)phenyl]methanesulfonyl}amino)bicyclo[1.1.1]pentan-1-yl]acetamide], the EC50 (as a rule, the concentration at which the effect is half-maximal) is 0.05 to 0.25 µM.
As for `O=C(COc1ccc(Cl)c(F)c1)NC12CC(NS(=O)(=O)Cc3ccc(Cl)cc3)(C1)C2` [Compound 427, 2-(4-chloro-3-fluorophenoxy)-N-(3-{[(4-chlorophenyl)methanesulfonyl]amino}bicyclo[1.1.1]pentan-1-yl)acetamide], the EC50 fell in the range of 0.5 to 2 µM.
`O=C(COc1ccc(Cl)c(F)c1)NC12CC(NS(=O)(=O)Cc3cccc(C(F)(F)F)c3)(C1)C2` [Compound 428, 2-(4-chloro-3-fluorophenoxy)-N-[3-({[3-(trifluoromethyl)phenyl]methanesulfonyl}amino)bicyclo[1.1.1]pentan-1-yl]acetamide]: the EC50 is 0.5 to 2 µM.
For `O=C(COc1ccc(Cl)c(F)c1)NC12CCC(NS(=O)(=O)Cc3ccc(C(F)(F)F)cc3)(CC1)[C@@H](O)C2` [Compound 429, 2-(4-chloro-3-fluorophenoxy)-N-[(3S)-3-hydroxy-4-({[4-(trifluoromethyl)phenyl]methanesulfonyl}amino)bicyclo[2.2.2]octan-1-yl]acetamide], the EC50 lay in the range of 0.05 to 0.25 µM.
As to `O=C(COc1ccc(Cl)c(F)c1)NC12CCC(NS(=O)(=O)Cc3cccc(C(F)(F)F)c3)(CC1)[C@@H](O)C2` [Compound 430, 2-(4-chloro-3-fluorophenoxy)-N-[(3S)-3-hydroxy-4-({[3-(trifluoromethyl)phenyl]methanesulfonyl}amino)bicyclo[2.2.2]octan-1-yl]acetamide], the EC50 lay in the range of 0.5 to 2 µM.
The value for `O=C(COc1ccc(Cl)c(F)c1)NC12CC(NC(=O)Nc3ccc(Cl)cc3)(C1)C2` [Compound 431, 2-(4-chloro-3-fluorophenoxy)-N-(3-{[(4-chlorophenyl)carbamoyl]amino}bicyclo[1.1.1]pentan-1-yl)acetamide] was 0.05 to 0.25 µM; that for `O=C(COc1ccc(Cl)c(F)c1)NC12CC(NC(=O)Nc3ccc(Cl)cc3O)(C1)C2` [Compound 432, 2-(4-chloro-3-fluorophenoxy)-N-(3-{[(4-chloro-2-hydroxyphenyl)carbamoyl]amino}bicyclo[1.1.1]pentan-1-yl)acetamide] was 0.05 to 0.25 µM; that for `Cc1ccc(OC(=O)NC23CCC(NC(=O)COc4ccc(Cl)c(F)c4)(CC2)CC3O)cc1` (stereo not drawn) [Compound 433, 4-methylphenyl {4-[2-(4-chloro-3-fluorophenoxy)acetamido]-2-hydroxybicyclo[2.2.2]octan-1-yl}carbamate] was 0.05 to 0.25 µM.
Regarding `O=C(COc1ccc(Cl)c(F)c1)NC12CC(NC(=O)Oc3ccc(Cl)cc3)(C1)C2` [Compound 434, 4-chlorophenyl {3-[2-(4-chloro-3-fluorophenoxy)acetamido]bicyclo[1.1.1]pentan-1-yl}carbamate], the EC50 lay within 0.25 to 0.5 µM.
With `Cc1ccc(OC(=O)NC23CC(NC(=O)COc4ccc(Cl)c(F)c4)(C2)C3)cc1` [Compound 435, 4-methylphenyl {3-[2-(4-chloro-3-fluorophenoxy)acetamido]bicyclo[1.1.1]pentan-1-yl}carbamate], the EC50 was 0.25 to 0.5 µM.
In the case of `O=C(COc1ccc(Cl)c(F)c1)NC12CCC(NC(=O)Oc3ccc(Cl)cc3)(CC1)C(O)C2` (stereo not drawn) [Compound 436, 4-chlorophenyl {4-[2-(4-chloro-3-fluorophenoxy)acetamido]-2-hydroxybicyclo[2.2.2]octan-1-yl}carbamate] it was 0.05 to 0.25 µM.
As for `O=C(COc1ccc(Cl)cc1)NC12CCC(NC(=O)COc3ccc(Cl)c(F)c3)(CC1)[C@@H](O)C2` [Compound 437, 2-(4-chloro-3-fluorophenoxy)-N-{(2S)-4-[2-(4-chlorophenoxy)acetamido]-2-hydroxybicyclo[2.2.2]octan-1-yl}acetamide], the EC50 is below 0.01 µM.
